Results taken from patent publication US5158970A, “Proline derivatives” (Kabushiki Kaisha Yakult Honsha, priority 1989, dated 1992).
Residues, ends and D or L forms follow the SMILES beside them. *: point of attachment. Cbz = O=C(OCc1ccccc1)*

Key:
[1] = test system: scopolamine-induced amnesia; assay: step-down passive avoidance test, anti-amnestic activity on scopolamine-induced amnesia; assay type: in vivo, male rats of Wister strain; conditions: scopolamine 0.5 mg/kg i.p., retention 24 hours after acquisition, relative to scopolamine-treated group
Source text: A step-down passive avoidance test on rats was used as the method of assay for anti-amnestic activity to estimate the preventive effect of prolylendopeptidase inhibitors on scopolamine-induced amnesia. This method of assay involved application of electric shocks to animals upon their stepping down on a grid floor to see whether they have learned that such shocks can be avoided by staying on a platform. A passive avoidance test chamber used in this experiment was comprised of an electrifiable grid floor (20 cm in length and 22 cm in width) and a platform (20 cm in length, 15 cm in width and 5 cm in height) placed at the right back corner thereof.
5-Weeks-old male rats of Wister strain weighing 100-150 g (purchased from Japan Clea Co., Ltd.) were used in the test.
Each test compound used in the doses indicated in Tables 2-3 was dissolved or suspended in 4% gum arabic-containing distilled water (1 ml) and administered p.o. one hour before the commencement of acquisition trial. In addition, scopolamine hydrobromide dissolved in saline (0.5 ml) was intraperitoneally administered in a dose of 0.5 mg/kg 30 minutes before the acquisition trial to prepare experimental animal models of amnesia.
In the acquisition trial, the rat was placed on the platform in the test chamber and, when the animal stepped down on the grid floor, the electric current of 5.0 mA was immediately sent to the grid floor continuously until the animal went up on the platform If the rat having gone up on the platform stayed there for more than 30 seconds, the animal was regarded to have learned the situation and taken out of the test chamber. A total time of measurement in the acquisition trial was limited to 300 seconds as maximum, and the time elapsing until the rat learned the situation was measured. In order to avoid any significant difference in the rats, those which took more than 300 seconds for the learning were excluded from the experiment.
The retention trial was carried out 24 hours after the acquisition trial. In this trial, the rat was placed again on the platform in the test chamber, the time elapsing until the animal stepped down onto the grid floor (the step-down latency) was measured.
In each of these tables they are indicated as relative step-down latency, shown by each test compound-treated group in the retention trial, to step-down latency for scopolamine-treated group (i.e. test compound-treated group's step-down latency/scopolamine-treated group's step-down latency).

proline endopeptidase = conditions: prior art; cited from earlier work
[2] = prior art; cited from earlier work
prolylendopeptidase = prolylendopeptidase (Elizabethkingia meningoseptica, UniProt P27028); assay: biochemical; assay type: biochemical; conditions: substrate 2.5 mM Z-glycyl-proline-β-naphthylamide; pH 7.0; 35° C. for 10 minutes; read-out: inhibition constant (Ki)
Procedure: The compounds of the invention obtained in the foregoing Examples were assayed for their prolylendopeptidase inhibition activity. This assay for prolylendopeptidase inhibition was carried out in accordance with the method of Yoshimoto and Tsuru (Yoshimoto, T. and Tsuru, D., Agr. Biol. Chem. Vol. 42, 2417, 1978). The corresponding number of test tubes to the number of the compounds to be tested were prepared and 2.5 mM Z-glycyl-proline-β-naphthylamide (0.25 ml), 0.1 M phosphate buffer (pH 7.0, 0.99 ml) and a solution of one of the peptides of the invention (0.1 ml) were placed in each test tube and warmed at 37° C. for 3 minutes. 0.1 ml of solution of propylendopeptidase (0.2 unit/ml) was added to each test tube. After reaction at 35° C. for 10 minutes, 1 M acetate buffer containing Triton X-100 (pH 4.0) was added to a final concentration of 10% and after the mixture was left to stand at room temperature for 15 minutes the absorbance (a) at 410 nm was measured.
The above-mentioned procedure was followed in the same manner but using buffers only in place of the solution of each compound of the invention, and the absorbance (b) was measured.

[3] = Table 2, 5 mg/kg p.o., **p < 0.01 (Mann-Whitney)

prolylendopeptidase, sequence (P27028 21-705): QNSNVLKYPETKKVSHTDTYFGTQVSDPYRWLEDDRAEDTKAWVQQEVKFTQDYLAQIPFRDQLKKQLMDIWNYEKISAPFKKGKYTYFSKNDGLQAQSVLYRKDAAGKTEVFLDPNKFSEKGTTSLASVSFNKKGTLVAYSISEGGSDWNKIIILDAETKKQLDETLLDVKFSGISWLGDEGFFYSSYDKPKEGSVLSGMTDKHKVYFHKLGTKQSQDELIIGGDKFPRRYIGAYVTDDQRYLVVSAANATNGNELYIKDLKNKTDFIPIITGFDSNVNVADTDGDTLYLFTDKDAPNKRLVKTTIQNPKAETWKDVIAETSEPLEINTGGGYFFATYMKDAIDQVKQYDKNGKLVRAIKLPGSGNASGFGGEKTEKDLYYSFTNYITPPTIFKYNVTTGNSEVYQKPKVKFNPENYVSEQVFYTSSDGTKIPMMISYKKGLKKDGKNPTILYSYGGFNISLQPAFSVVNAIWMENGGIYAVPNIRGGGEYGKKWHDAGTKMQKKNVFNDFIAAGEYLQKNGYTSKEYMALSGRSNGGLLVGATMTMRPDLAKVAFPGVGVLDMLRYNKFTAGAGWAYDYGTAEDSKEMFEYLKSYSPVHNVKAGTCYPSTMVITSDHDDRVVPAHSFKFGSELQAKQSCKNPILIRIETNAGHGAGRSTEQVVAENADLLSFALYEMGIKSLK

Row | Ki (prolylendopeptidase) | Structure (SMILES) | Relative step-down latency in retention trial (mean ± S.E.) ([1]; Table 2, 1 mg/kg p.o.) | Relative step-down latency in retention trial (mean ± S.E.) [1, 3] | Relative step-down latency in retention trial (mean ± S.E.) ([1]; Table 2, 25 mg/kg p.o.) | Relative step-down latency in retention trial (mean ± S.E.) ([1]; Table 2, 50 mg/kg p.o.) | Relative step-down latency in retention trial (mean ± S.E.) ([1]; Table 2, 100 mg/kg p.o.) | other results
1 | – | O=C[C@@H]1CCCN1C(=O)[C@@H]1CCCN1C(=O)OCc1ccccc1 [ZPP, Benzyloxycarbonyl-L-prolyl-L-prolinal] (Cbz-Pro-Pro-aldehyde) | 2.8 ± 1.3 | 8.5 ± 1.6 | 1.4 ± 0.8 | 0.5 ± 0.1 | 1.3 ± 0.8 | inhibitory activity to proline endopeptidase (proline endopeptidase): inhibitory activity to proline endopeptidase; anti-amnestic action [2]: anti-amnestic action
2 | 1000 µM | CCOC(OCC)[C@@H]1CCCN1C(=O)CN(C)C(=O)CCC(=O)O [Example 14, N-succinyl-sarcosyl-L-prolinal diethyl acetal] | – | – | – | – | – | –
3 | 370 µM | CCOC(OCC)[C@@H]1CCCN1C(=O)[C@@H]1CCCN1C(=O)CCC(=O)O [Example 12, N-succinyl-L-prolyl-L-prolinal diethyl acetal] | – | – | – | – | – | –
4 | 2.2 µM | CCOC(OCC)[C@@H]1CCCN1C(=O)[C@@H]1CCCN1C(=O)OCc1ccccc1 [Example 8, N-benzyloxycarbonyl-L-prolyl-L-prolinal diethyl acetal] | 2.0 ± 0.5 | 0.9 ± 0.2 | 1.2 ± 0.3 | 0.7 ± 0.3 | 0.6 ± 0.3 | –
5 | 1000 µM | CCOC(OCC)[C@@H]1CCCN1C(=O)[C@@H]1CCC(=O)N1C(=O)CCC(=O)O [Example 16, N-succinyl-L-pyroglutamyl-L-prolinal diethyl acetal] | – | – | – | – | – | –
6 | – | COc1ccc(C(=O)N2CCCC2=O)cc1 [aniracetam] | – | – | – | – | – | Relative step-down latency in retention trial (mean ± S.E.) ([1]; Table 3, 12.5 mg/kg p.o.): 1.1 ± 0.4; Relative step-down latency in retention trial (mean ± S.E.) ([1]; Table 3, 25 mg/kg p.o.): 1.6 ± 0.6; Relative step-down latency in retention trial (mean ± S.E.) ([1]; Table 3, 50 mg/kg p.o., *p < 0.05 (Mann-Whitney)): 2.3 ± 0.6; Relative step-down latency in retention trial (mean ± S.E.) ([1]; Table 3, 100 mg/kg p.o.): 0.7 ± 0.3
